In patent US20250073209A1, “COVALENT TARGETING OF RhoA FOR CANCER THERAPY” (The University of Hong Kong, priority 2023, published 2025):

How the values were obtained:
SW620 xenograft = test: Mouse SW620 xenograft model; assay type: in vivo
Procedure: FIG. 7A is a graph showing inhibition of tumor growth by CL16 in mouse HCT116 xenografts through intraperitoneal injection at 10 mg/kg (n=6 per group). FIG. 7B is a graph showing inhibition of tumor growth by CL16 in mouse HT29 xenografts through intraperitoneal injection at 10 mg/kg (n=7). FIG. 7C is a graph showing the body weight of mice with HT29 xenografts throughout the treatment with CL16. FIG. 7D is a graph showing inhibition of tumor growth by CL16 in mouse SW620 xenografts through intraperitoneal injection at 10 mg/kg (n=6 per group). FIG. 7E is a bar graph showing the tumor weight of harvested tumors from the treated mice with SW620 xenografts. FIG. 7F is a graph showing the body weight of mice with SW620 xenografts throughout the treatment with CL16. Statistical analysis using a two-tailed Student's t-test. *P<0.05.
7-week-old mice with weight around 20 g were inoculated subcutaneously with HCT116 (2×10^6 cells per mouse) or HT29 (3×10^6 cells per mouse) cells, in serum-free RMPI or Matrigel in PBS respectively. […] The tumor volume and body weight of the nude mice were measured throughout the treatment. The tumor volume was calculated by the equation: Volume (mm^3)=1×w^2/2, where 1 and w were the length and width of the tumor. At the end of the treatment, the mice were sacrificed and the tumor weight was measured. […]

Rac1 = Rac1 (Homo sapiens, UniProt P63000); test: Rac1-GTP PAK-PBD pull-down in HT29 cells; assay type: cell-based; design: endogenous in cells; host or cells: HT29; details: HT29, complete medium 24 h
From the text: The procedure is similar to that for RhoA-GTP assay, except that Rac1-GTP and Cdc42-GTP in CRC cells were first enriched by Rac1 Pull-Down Activation Assay Biochem Kit (Cytoskeleton #BK035) instead of using the RhoA kit. The enriched Rac1-GTP and Cdc42-GTP were then immunoblotted by Rac1/2/3 antibody (CST #2465) and Cdc42 antibody (CST #2462) respectively.
GTP loading onto RhoA is critical for the protein activation and mediating downstream signals. In view of the inhibitions of GDP-to-GTP exchange of RhoA by CL16 in vitro as discussed above, effects of CL16 on RhoA biology in colorectal cancer cells were examined. In the serum starvation-re-stimulation experiment, HCT116 cells were grown in serum-free medium with CL16, Rhosin or solvent control for 24 h, followed by stimulation with 10% FBS for 10 min. The cells were then lysed and the RhoA activity was assayed by the level of RhoA-GTP, which is the active form of RhoA. […] HT29 cells were incubated with solvent vehicle, CL16 or Rhosin in complete medium for 24 h. The cells were then washed, lysed and subjected to rhotekin pull-down for blotting RhoA-GTP, or PAK-PBD pull-down for blotting Rac1-GTP and Cdc42-GTP. Confocal fluorescence images from HCT116 and HT29 cells expressing FRET RhoA-biosensor in the serum starvation-restimulation experiment were taken.

RhoA = RhoA (Homo sapiens, UniProt P61586); test: LC-MS/MS on HCT116 cells treated with CL16; assay type: cell-based; design: endogenous in cells; host or cells: HCT116; details: CL16 25 or 50 μM, 4 hours
Procedure: HCT116 cells were treated with DMSO or CL16 (25 or 50 μM) in complete medium for 4 hours, washed with PBS, harvested, and lysed in PBS by sonication. The protein amount of the samples was determined by BCA assay and normalized. The cell lysates in PBS were reduced by TCEP (1 mM) at 65° C. for 30 min, followed by alkylation with iodoacetamide (18 mM) at 37° C. for 30 min in the dark. The mixtures were added with prechilled acetone (600 μL) for protein precipitation at −20° C. overnight. The samples were centrifuged at 8000g for 10 min at 4° C. The supernatant was discarded and the dried pellet was resuspended in […] in PBS (100 μL). Sequencing grade trypsin (Promega #V5111) were added to the samples for overnight digestion at 37° C. with constant shaking. The solutions were then acidified with formic acid (FA; final concentration 5%), centrifuged at 13,200 rpm for 30 min at 4° C. The supernatant was collected and stored at −80° C. before MS analysis.
The peptide solutions were dried and desalted by C18 Stage tips, and the peptides were loaded onto an Aurora C18 UHPLC column (75 μm i.d.×25 cm length×1.6 μm particle size (IonOpticks Australia) coupled to timsTOF Pro mass spectrometer (Bruker). […]

Sequence of RhoA (P61586 whole entry): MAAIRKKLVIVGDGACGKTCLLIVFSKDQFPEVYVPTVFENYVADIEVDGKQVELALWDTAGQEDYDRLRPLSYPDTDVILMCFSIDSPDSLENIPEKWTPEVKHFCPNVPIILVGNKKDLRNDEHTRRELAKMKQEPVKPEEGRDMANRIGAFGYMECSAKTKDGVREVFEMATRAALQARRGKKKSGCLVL

SMILES: O=C(CCl)N1N=C(c2cc3ccccc3o2)CC1c1ccco1 (stereo not shown) [CL16]
- body weight, treated vs untreated (SW620 xenograft; SW620 xenografts, FIG. 7F): no observable difference
- tumor growth vs vehicle control (SW620 xenograft; nude mice, 10 mg/kg intraperitoneal): significantly inhibited tumor growth
- Rac1 activity (Rac1-GTP) (Rac1): no significant changes
- covalent modification site on RhoA (RhoA): Cys16
